Data reported in patent publication US7547752B2, “Scalp treatment” (Unilever Home & Personal Care USA division of Conopco, Inc., priority 2002, dated 2009).

Test system: scalp itch in panellists with self-perceived dandruff
Experiment: Clinical anti-itch study: CLA lotion or lotion base applied before AD or NAD shampoo wash, investigator-scored itch degree
Format: in vivo, human
Details: lotion applied one hour before hair wash, shampoo 3 times a week, weekly assessment, FIG. 1
Text: The effect of conjugated linoleic acid, used in conjunction with anti-dandruff (AD) and non anti-dandruff (NAD) shampoo, was clinically assessed using the following protocol.
The conjugated linoleic acid is used as a lotion (composition B). The lotion base comprises Tween™ 20, Carbopol™ 980, Sodium Hydroxide, Natrosol™ 250HHR, EDTA-2Na, glydant plus and water (composition A). The use of the lotion is followed by a shampoo wash with an NAD shampoo (composition C) or an AD shampoo (composition D).
A randomised monadic double blind study design was used based on a total of 240 screened panellists, male and female, with self-perceived dandruff. All 240 panellists used a placebo shampoo (composition C) in their normal hair wash routine for 4 successive weeks.
The panellists were divided into four groups (total number of panellists=240):
Group 1: 60 panellists. All panellists wash their hair with NAD shampoo at home 3 times a week and apply CLA lotion one hour prior to washing their hair.
Group 2: 60 panellists. All panellists wash their hair with NAD shampoo at home 3 times a week and apply lotion base (composition A) one hour prior to washing their hair.
Group 3: 60 panellists. All panellists wash their hair with AD shampoo at home 3 times a week and apply CLA lotion one hour prior to washing their hair.
Group 4: 60 panellists. […]

Conjugated linoleic acid [CLA] was tested, and the “degree of itch of the scalp (itch degree, standard scale 0-4)” value was “can increase the degree of scalp itch”.
